Data reported in ChEMBL document CHEMBL1131797, “4-hydroxy-5,6-dihydro-2H-pyran-2-ones.3. Bicyclic and hetero-aromatic ring systems as 3-position scaffolds to bind to S1' and S2' of the HIV-1 protease enzyme” (Bioorg Med Chem Lett, 1999).
pEC50, pIC50, pKi: −log10 of the molar value. Blank lines part the entries; values can stand above or below the molecule they belong to.

Assays:
CCRF-CEM = test: Antiviral activity was evaluated against HIV-infected CEM cells; type: functional, cell-based; conditions: Homo sapiens
[1] = target: T1, Human immunodeficiency virus type 1 protease (Human immunodeficiency virus 1, UniProt Q72874); test: Inhibitory activity was evaluated against human immunodeficiency virus type 1(HIV-1) protease at pH 6.2
[2] = target: T1, Human immunodeficiency virus type 1 protease; test: Inhibitory concentration against human immunodeficiency virus type 1(HIV-1) protease at pH 4.7
[3] = target: T1, Human immunodeficiency virus type 1 protease; test: Inhibitory activity was evaluated against human immunodeficiency virus type 1(HIV-1) protease at pH 4.7

Compound: Cc1c(SC2=C(O)OC(CCc3ccccc3)(c3ccccc3)CC2=O)sc2ccccc12 (configuration not stated)
pEC50 (CCRF-CEM): < 4.00
pIC50 [2]: 7.13

Compound: O=C1CC(CCc2ccccc2)(c2ccccc2)OC(O)=C1Sc1cccs1 (configuration not stated)
pEC50 (CCRF-CEM): < 4.14
pIC50 [2]: 6.54

Compound: O=C1CC(CCc2ccccc2)(c2ccccc2)OC(O)=C1Sc1cc2ccccc2s1 (configuration not stated)
pEC50 (CCRF-CEM): < 4.00
pIC50 [2]: 6.44

Compound: CC(C)(C)c1c(SC2=C(O)OC(CCc3ccccc3)(c3ccccc3)CC2=O)sc2ccccc12 (configuration not stated)
pEC50 (CCRF-CEM): < 4.18
pIC50 [1]: 7.77
pIC50 [2]: 8.15

Compound: CCc1c(SC2=C(O)OC(CCc3ccccc3)(c3ccccc3)CC2=O)sc2ccccc12 (configuration not stated)
pEC50 (CCRF-CEM): < 4.19
pIC50 [2]: 7.55

Compound: CC(C)(C)c1c(SC2=C(O)OC(CCc3ccccc3)(c3ccccc3)CC2=O)oc2ccccc12 (configuration not stated)
pEC50 (CCRF-CEM): 4.51
pIC50 [1]: 6.68
pIC50 [2]: 7.96

Compound: CC(C)(C)n1c(SC2=C(O)OC(CCc3ccccc3)(c3ccccc3)CC2=O)nc2ccccc21 (configuration not stated)
pEC50 (CCRF-CEM): 4.21
pIC50 [2]: 6.30

Compound: CC(C)(C)c1oc2ccccc2c1SC1=C(O)OC(CCc2ccccc2)(c2ccccc2)CC1=O (configuration not stated)
pEC50 (CCRF-CEM): 5.00
pIC50 [1]: 6.68
pIC50 [2]: 7.74

Compound: Cc1ccsc1SC1=C(O)OC(CCc2ccccc2)(c2ccccc2)CC1=O (configuration not stated)
pEC50 (CCRF-CEM): < 4.00
pIC50 [2]: 6.71

The remaining lines, values ahead:

pEC50 (CCRF-CEM): 6.30
pIC50 [1]: 9.00
Compound: Cc1cc(SC2=C(O)O[C@](CCc3ccc(O)cc3)(C(C)C)CC2=O)c(C(C)(C)C)cc1CO

pEC50 (CCRF-CEM): 4.48
pIC50 [2]: 7.55
Compound: CC(C)(C)c1cc2c(cc1SC1=C(O)OC(CCc3ccccc3)(c3ccccc3)CC1=O)CCCC2 (configuration not stated)

pEC50 (CCRF-CEM): 4.34
Compound: Cc1ccc(C(C)(C)C)c(SC2=C(O)OC(CCc3ccccc3)(c3ccccc3)CC2=O)c1 (configuration not stated)

pKi [3]: > 10.00
pEC50 (CCRF-CEM): 6.00
pIC50 [1]: > 9.00
Compound: CC(C)[C@]1(CCc2ccc(O)cc2)CC(=O)C(Sc2sc3ccccc3c2C(C)(C)C)=C(O)O1

pEC50 (CCRF-CEM): 4.66
pIC50 [1]: 6.89
pIC50 [2]: 8.05
Compound: CC(C)(C)c1cc2c(cc1SC1=C(O)OC(CCc3ccccc3)(c3ccccc3)CC1=O)CCC2 (configuration not stated)
